Experiments:
Format in all cases: in vivo, rat
Male Sprague-Dawley rats [1] = assay: Hepatic enzymes analysis (serum ALT and AST); conditions: TAA rats; effect on TAA-induced increases
Method: Animal groups. Six groups of animals were established under the following treatments: (1): Normal control rats, treated with saline and corn oil injection at the dose of 2 and 1 ml.kg-1, respectively, n=12. (2): Normal rats, treated with Vitamin C, Vitamin E and SAMe, n=8. The dose for Vitamin C and Vitamin E were 100 and 200 mg.kg-1, respectively; for SAMe was 25 mg.kg-1. (3): Thioacetaminde (TAA) rats, given with intraperitoneal injection of TAA at the dose of 200 mg.kg-1, n=9. (4): TAA rats treated with Vitamin C+Vitamin E, n=11. (5): TAA rats with SAMe treatment, n=7. (6): TAA rats treated with Vitamin C+Vitamin E+SAMe, n=8. All compounds were administered by intraperitoneal injection (i. p.). […]
Protocol. […] Following the establishment of glucose baseline, the first RIST index was determined and this was regarded as the control RIST. […] The percentage contribution of HISS-dependent component to total insulin sensitivity was calculated as: % HISS=(RIST index in control−RIST index after atropine)/RIST index in control. […]
Hepatic enzymes analysis. Serum samples from rats in groups 1 to 6 were analyzed for alanine aminotransferase (ALT) and aspartate aminotransferase (AST) activities spectrophotometrically utilizing an Abbott analyzer and Diagnostic Chemicals Limited assay reagents (Charlottetown, P.E.I, Canada).

Male Sprague-Dawley rats [2] = assay: Liver histopathological examination; conditions: TAA rats; for Bridging Necrosis / Necrosis: score 0-3; for Inflammation: score 0-3 (normal-0, mild-1, moderate-2, severe-3), mean of 5 fields
Method: Six groups of animals were established under the following treatments: (1): Normal control rats, treated with saline and corn oil injection at the dose of 2 and 1 ml.kg-1, respectively, n=12. (2): Normal rats, treated with Vitamin C, Vitamin E and SAMe, n=8. The dose for Vitamin C and Vitamin E were 100 and 200 mg.kg-1, respectively; for SAMe was 25 mg.kg-1. (3): Thioacetaminde (TAA) rats, given with intraperitoneal injection of TAA at the dose of 200 mg.kg-1, n=9. (4): TAA rats treated with Vitamin C+Vitamin E, n=11. (5): TAA rats with SAMe treatment, n=7. (6): TAA rats treated with Vitamin C+Vitamin E+SAMe, n=8. All compounds were administered by intraperitoneal injection (i. p.). TAA was administered 24 h before the start of surgery, and all treatment with vitamins and SAMe were given 1 h post TAA administration.
The left liver lobe was excised and embedded in paraffin, sliced 7 μm in thickness, and stained with hematoxylin-eosin. The tissue slices were then analyzed with light microscopy. Histopathological analysis of the injured area was performed with a computerized video-imaging system (Image-Pro Plus. Media Cybernetics, Md., USA) by a pathologist (Y.F.) who was not aware of sample assignment to experimental group. The degree of injury, including inflammation, necrosis and bridging necrosis, was expressed as the mean of 5 different fields for each slide scaled as 0-3: normal-0, mild-1, moderate-2 and severe-3.

Male Sprague-Dawley rats [3] = assay: Rapid Insulin Sensitivity Test (RIST); conditions: for RIST index: TAA rats (TAA 200 mg.kg-1 i.p. 24 h before), control RIST, treatments i.p. 1 h post TAA; for RIST index post atropine: TAA rats, second RIST after atropine 0.1 mg.kg-1 i.v. (HISS-independent component)
Method: Surgical Preparation. Male Sprague-Dawley rats weighing 260-300 g from the University of Manitoba colony were maintained in the animal house under controlled conditions (22±1° C., 12 h light/12 h dark cycle). They were fed a standard rat chow diet with free access to water. All rats underwent a fasting period of 8 h and a refeeding phase of 2 h immediately before the start of surgical preparation. As HISS is only released in the fed state, the fasting-refeeding protocol assured a high level of HISS release in response to insulin. The rats were anaesthetized with an intraperitoneal injection of sodium pentobarbital (65 mg kg-1; Somnotol, MTC Pharmaceuticals, Ont). Maintained anesthesia was achieved throughout the experiment by a continuous infusion of pentobarbital sodium (0.5 mg.ml-1 saline given at 50 μl.min-1) through a cannula in the jugular vein, supplemented with a 0.65 mg (0.01 ml) bolus injection when required. The rats were placed on a temperature-controlled surgical table (Harvard Apparatus, Kent, England) and rectal temperature was monitored and held at 37-37.5° C. Spontaneous respiration was allowed through a tracheal tube.
An arterial-venous shunt was established, as previous described (Lautt W W et al. Can J Physiol Pharmacol. 1998; 76(12): 1080-6.), for monitoring mean arterial blood pressure (MAP), blood glucose level and for drug delivery. Briefly, two catheters (polyethylene tubing PE60), one inserted into the right femoral artery and the other into the right femoral vein, were connected to the two openings of a three way vascular circuit consisting of a T tube connected with silicon tubing. The third opening of the circuit was connected to a pressure transducer for the recording of the shunt pressure which, when the silicon tubing toward the venous side of the circuit was closed by clamping, represented the systemic arterial blood pressure. Blood samples were taken from the arterial side of the shunt for the glucose measurement. Flowing blood within the shunt assures the real time measurement of the blood glucose concentration, which is essential for the euglycemic clamp test as mentioned below. An infusion line was inserted into the venous side of the loop for drug delivery. Another infusion line connected to the jugular vein was established for glucose infusion. Animals were heparinized (100 IU.kg-1) to prevent clotting in the vascular loop.
Rapid Insulin Sensitivity Test (RIST). The RIST was performed as previously described (Lautt W W et al. Can J Physiol Pharmacol. 1998; 76(12): 1080-6.). Briefly, following completion of surgery, animals were allowed a 30-min stabilization period. The baseline glucose levels were then determined by samples taken at 5-min intervals and continued until three successive stable determinations were made. The mean of these three data points is regarded as the baseline for the RIST. To perform the RIST, human insulin (50mU.kg-1 in 0.5 ml saline) was infused into the femoral vein at the rate of 0.1 ml.min-1 for 5-min. After 1-min of insulin infusion, the first test glucose sample was determined and a variable glucose infusion (10%) was initiated. Blood samples were taken every 2-min and the glucose infusion rate was adjusted accordingly to maintain euglycemia. The RIST index is the amount of glucose (mg.kg-1) infused, to maintain euglycemia, over the test period that terminated when no further glucose infusion was required (approximately 30 min). At the end of a RIST, the animal is at its pretest glycemic level.
Animal groups. Six groups of animals were established under the following treatments: (1): Normal control rats, treated with saline and corn oil injection at the dose of 2 and 1 ml.kg-1, respectively, n=12. (2): Normal rats, treated with Vitamin C, Vitamin E and SAMe, n=8. The dose for Vitamin C and Vitamin E were 100 and 200 mg.kg-1, respectively; for SAMe was 25 mg.kg-1. […]

| Compound | Serum ALT and AST activities (Male Sprague-Dawley rats [1]) | histological injury of liver (Male Sprague-Dawley rats [2]) | Bridging Necrosis (Male Sprague-Dawley rats [2]) | Necrosis (Male Sprague-Dawley rats [2]) | Inflammation (Male Sprague-Dawley rats [2]) | RIST index (Male Sprague-Dawley rats [3]) [mg/kg] | RIST index post atropine (Male Sprague-Dawley rats [3]) [mg/kg] | inhibition at 0.1 mg/kg (Male Sprague-Dawley rats [3]; Rattus norvegicus, read-out: inhibition of insulin sensitivity) [%] | RIST index after atropine (Male Sprague-Dawley rats [3]; normal rats, atropine 0.1 mg.kg^−1) [mg/kg] |
| --- | --- | --- | --- | --- | --- | --- | --- | --- | --- |
| CC(=N)S [TAA, thioacetamide] | significant increase | massive hepatocytic necrosis | 1.17 ± 0.36 | 2.33 ± 0.17 | 1.50 ± 0.22 | 75.5 ± 2.8 | 69.0 ± 2.1 | – | – |
| C[S+](CC[C@H](N)C(=O)O)C[C@H]1O[C@@H](n2cnc3c(N)ncnc32)[C@H](O)[C@@H]1O (stereo partly shown) [SAMe, S-adenosylmethionine] | did not prevent | slight reduction in histological injury | 0.09 ± 0.09 | 1.79 ± 0.15 # | 0.93 ± 0.13 | 88.0 ± 4.1 | 72.1 ± 3.5 | – | – |
| CN1[C@@H]2CC[C@H]1C[C@@H](OC(=O)C(CO)c1ccccc1)C2 (stereo partly shown) [Atropine, atropine] | – | – | – | – | – | – | – | 50 ± 2.1 | 82.7 ± 3.2 |

— patent US8716260B2, “Use of S-adenosylmethionine, vitamin E, and vitamin C for the treatment of oxidative liver injury” (University of Manitoba, priority 2005, dated 2014)
